For 14 molecules, IC50 and melting point results are on record in US6413972B1, “Nitrogen-containing heterocyclic compounds, their production and use” (Takeda Chemical Industries, Ltd., priority 1997, dated 2002).

Structures can show the parent of a compound that is named as a salt.

The target of one data set is T1, human GnRH receptor (Homo sapiens, UniProt P30968).
T1 construct: expressed in transfected cells; host or cells: CHO (Chinese hamster ovary) cells; membrane fraction
T1 sequence (P30968 1-328): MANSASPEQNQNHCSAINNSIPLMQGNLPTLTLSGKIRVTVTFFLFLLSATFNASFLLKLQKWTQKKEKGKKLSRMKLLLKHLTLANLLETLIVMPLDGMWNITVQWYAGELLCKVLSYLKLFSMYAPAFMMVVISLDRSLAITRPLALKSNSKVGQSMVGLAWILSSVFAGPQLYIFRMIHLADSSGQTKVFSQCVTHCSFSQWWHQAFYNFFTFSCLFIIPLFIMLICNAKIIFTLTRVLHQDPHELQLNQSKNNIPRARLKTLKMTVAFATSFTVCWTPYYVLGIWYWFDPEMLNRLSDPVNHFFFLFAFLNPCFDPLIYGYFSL
Nature of the data set: 125I-leuprorelin binding inhibition on CHO cell membrane fraction containing human GnRH receptor. The settings on record: membrane fraction of human GnRH receptor-expressing CHO cells, 25° C. for 60 minutes, from a Hill plot. Here is the method:
To a tube containing 10 μl of a 3×10^−4 M aqueous solution of leuprorelin and 10 μl of 0.01 mg/ml lactoperoxidase, 10 μl (37 MBq) of a solution of Na^125I was added. After stirring, 10 μl of 0.001% H2O2 was added, and a reaction was carried out at about 15 to 25° C. for 20 minutes. By adding 700 μl of a 0.05% TFA (trifluoroacetic acid) solution, the reaction was stopped, followed by purification by reversed-phase HPLC. The HPLC conditions used are shown below. ^125I-leuprorelin was eluted at a retention time of 26 to 27 minutes. […]
The human membrane fraction prepared in paragraph (2) above was diluted with the assay buffer to yield a 200 μg/ml dilution, which was then dispensed at 188 μl per tube. […] To determine maximum binding quantity, a reaction mixture of 2 μl of 60% DMSO and 10 μl of 38 nM ^125I-leuprorelin was prepared. […]
After a reaction was carried out at 25° C. for 60 minutes, the reaction mixture was aspirated and filtered through a polyethyleneimine-treated Whatman glass filter (GF-F). After this filtration, the radioactivity of ^125I-leuprorelin remaining on the filter paper was measured, using a γ-counter.
The binding inhibition rate (%) for the subject compound (PMB) was calculated, using the equation: […]
The term IC50 denotes the point on the concentration scale where inhibition reaches its midpoint. A lower IC50 goes with greater potency in that assay. For the molecule `CCNC(=O)Nc1ccc(-c2nc3n(Cc4c(F)cccc4F)cc(C(=O)OCC)c(=O)n3c2CN(C)Cc2ccccc2)cc1` [Example 15, 8-(2,6-difluorobenzyl)-5,8-dihydro-2-(4-ethylaminocarbonylaminophenyl)-3-(N-methyl-N-benzylaminomethyl)-5-oxoimidazo[1,2-a]pyrimidine-6-carboxylic acid ethyl ester], the half-inhibitory concentration (IC50) was determined as 0.5 nM.

Tested on in another data set: not given
Assay: not given
Settings: not given
Usually melting point stands for the temperature, or range, at which the solid turns liquid. `CCOC(=O)c1cn(Cc2c(F)cccc2F)c2nc(-c3ccc([N+](=O)[O-])cc3)c(C)n2c1=O` [Example 5, 8-(2,6-difluorobenzyl)-5,8-dihydro-3-methyl-2-(4-nitrophenyl)-5-oxoimidazo[1,2-a]pyrimidine-6-carboxylic acid ethyl ester] came in with a melting point of 219 to 221 °C. `CCOC(=O)c1cn(Cc2c(F)cccc2F)c2nc(-c3ccc(NC(=O)C(C)C)cc3)c(CN(C)Cc3ccccc3)n2c1=O` [Example 14, 8-(2,6-difluorobenzyl)-5,8-dihydro-2-(4-isobutyrylaminophenyl)-3-(N-methyl-N-benzylaminomethyl)-5-oxoimidazo[1,2-a]pyrimidine-6-carboxylic acid ethyl ester] yielded a melting point of 98 to 103 °C.

For the molecule `CCNC(=O)Nc1ccc(-c2nc3n(Cc4c(F)cccc4F)cc(C(=O)OC(C)C)c(=O)n3c2CN(C)Cc2ccccc2)cc1` [Example 34, 8-(2,6-difluorobenzyl)-5,8-dihydro-2-[4-(ethylaminocarbonylamino)phenyl]-3-(N-methyl-N-benzylaminomethyl)-5-oxoimidazo[1,2-a]pyrimidine-6-carboxylic acid isopropyl ester], the melting point lay in the range of 198 to 200 °C. The molecule `CCOC(=O)c1cnc2nc(-c3ccccc3)c(C)n2c1O` [Example 1, 5-hydroxy-3-methyl-2-phenylimidazo[1,2-a]pyrimidine-6-carboxylic acid ethyl ester] returned a melting point of 220 to 225 °C. In turn, `CON(C)C(=O)c1cn(Cc2c(F)cccc2F)c2nc(-c3ccc(N)cc3)c(CN(C)Cc3ccccc3)n2c1=O` [Example 30, 8-(2,6-difluorobenzyl)-5,8-dihydro-2-(4-aminophenyl)-3-(N-methyl-N-benzylaminomethyl)-5-oxoimidazo[1,2-a]pyrimidine-6-(N-methyl-N-methoxy)carboxamide] registered a melting point of 89 to 91 °C. Turning to `Cc1c(Cc2ccccc2)c(=O)n2c(CN(C)Cc3ccccc3)c(-c3ccc(NC(=O)OC(C)(C)C)cc3)nc2n1Cc1c(F)cccc1F` [Example 19, 2-[4-(N-Boc-amino)phenyl]-8-(2,6-difluorobenzyl)-5,8-dihydro-3-(N-methyl-N-benzylaminomethyl)-6-benzyl-7-methyl-5-oxoimidazo[1,2-a]pyrimidine], the melting point fell in the range of 179 to 184 °C. For the molecule `CCOC(=O)c1cn(Cc2c(F)cccc2F)c2nc(-c3ccc([N+](=O)[O-])cc3)c(CN(C)Cc3ccccc3)n2c1=O` [Example 9, 8-(2,6-difluorobenzyl)-5,8-dihydro-3-(N-methyl-N-benzylaminomethyl)-2-(4-nitrophenyl)-5-oxoimidazo[1,2-a]pyrimidine-6-carboxylic acid ethyl ester], the melting point fell in the range of 187 to 189 °C. As for `CCOC(=O)c1cn(Cc2c(F)cccc2F)c2nc(-c3ccc([N+](=O)[O-])cc3)c(CBr)n2c1=O` [Example 7, 3-bromomethyl-8-(2,6-difluorobenzyl)-5,8-dihydro-2-(4-nitrophenyl)-5-oxoimidazo[1,2-a]pyrimidine-6-carboxylic acid ethyl ester], the melting point was 205 to 210 °C. `CCOC(=O)c1cn(Cc2c(F)cccc2F)c2nc(-c3ccc(N)cc3)c(CN(C)Cc3ccccc3)n2c1=O` [Example 12, 2-(4-aminophenyl)-8-(2,6-difluorobenzyl)-5,8-dihydro-3-(N-methyl-N-benzylaminomethyl)-5-oxoimidazo[1,2-a]pyrimidine-6-carboxylic acid ethyl ester] came in with a melting point of 161 to 166 °C. `CC(=O)N(C(=O)OC(C)(C)C)c1ccc(-c2nc3n(Cc4c(F)cccc4F)c(C)c(Cc4ccccc4)c(=O)n3c2C)cc1` [Example 17, 8-(2,6-difluorobenzyl)-5,8-dihydro-2-(4-(N-Boc-N-acetylamino)phenyl)-3-methyl-6-benzyl-7-methyl-5-oxoimidazo[1,2-a]pyrimidine] gave a melting point of 176 to 177 °C.

Molecule `CCOC(=O)c1cn(Cc2c(F)cccc2F)c2nc(-c3ccc([N+](=O)[O-])cc3)c(CO)n2c1=O` [Example 11, 8-(2,6-difluorobenzyl)-5,8-dihydro-3-(hydroxymethyl)-2-(4-nitrophenyl)-5-oxoimidazo[1,2-a]pyrimidine-6-carboxylic acid ethyl ester] displayed a melting point of 230 to 232 °C.

`Cc1c(-c2ccccc2)nc2n(Cc3c(F)cccc3F)cc(C(=O)CC(C)C)c(=O)n12` (as salt: hydrochloride) [Example 28, 8-(2,6-difluorobenzyl)-5,8-dihydro-2-phenyl-3-methyl-6-(3-methylbutyryl)-5-oxoimidazo[1,2-a]pyrimidine] showed a melting point of 158 to 166 °C. Molecule `CN(Cc1ccccc1)Cc1c(-c2ccc(NC(=O)c3ccoc3)cc2)nc2n(Cc3c(F)cccc3F)cc(C(=O)c3ccccc3)c(=O)n12` [Example 31, 8-(2,6-difluorobenzyl)-5,8-dihydro-2-(3-furylcarbonylaminophenyl)-3-(N-methyl-N-benzylaminomethyl)-6-benzoyl-5-oxoimidazo [1,2-a]pyrimidine] gave a melting point of 172 to 174 °C. On to `CCNC(=O)Nc1ccc(-c2nc3n(Cc4c(F)cccc4F)cc(C(=O)OCC)c(=O)n3c2CN(C)Cc2ccccc2)cc1` [Example 15, 8-(2,6-difluorobenzyl)-5,8-dihydro-2-(4-ethylaminocarbonylaminophenyl)-3-(N-methyl-N-benzylaminomethyl)-5-oxoimidazo[1,2-a]pyrimidine-6-carboxylic acid ethyl ester], for which the melting point lay in the range of 191 to 196 °C.
